Literature values in patent publication EP2566462B1, “IMMEDIATE RELEASE FORMULATIONS AND DOSAGE FORMS OF GAMMA-HYDROXYBUTYRATE” (Jazz Pharmaceuticals Inc., priority 2010, dated 2011).

Experiments:
[1] = in man, given orally
[2] = tested on: patients with hyperkinetic movement disorders including ethanol responsive myoclonus and essential tremor; settings: open label, five patients

In the case of `O=C([O-])CCCO.[Na+]` [sodium oxybate, Sodium gamma-hydroxybutyrate], the plasma half-life [1] is given as “about 45 minutes”, the “blinded ratings of ethanol responsive myoclonus and tremor” value [2] is given as “dose-dependent improvements” and the tolerability [2] is given as “tolerated at doses that provided clinical benefit”.
